Reference: US6583132B1, “Oxidant scavengers” (Duke University, priority 1993, dated 2003)

Key:
Cortical cells = assay: Cell death of cortical cells by EthD-1 staining; assay type: cell-based, rat; settings: concentration-response curves
Procedure: Tissue culture: Mixed neuronal and glial cultures were prepared from embryonic day-18 rat cerebral cortices (Sprague-Dawley, Zivic Miller). Briefly, the cerebral cortices were dissected and enzymatically dissociated by incubation in Ca^++-, Mg^++-free Hank's balanced salt solution (HBSS) supplemented with 10 mM HEPES and 0.25% trypsin for 20 min. at 37° C. The tissue was rinsed and dispersed into single cell suspension by gentle passage through a fire polished Pasteur pipette. The cell suspension was centrifuged and resuspended in Minimum Essential Media (MEM), containing Earle's salts supplemented with 3 g/L glucose, 5% horse serum and 5% fetal bovine serum (growth media). […]
Neurotoxicity studies: Neurotoxicity was determined by the measurement of LDH released in the supernatant media as previously described (Patel et al, Toxicol. Appl. Pharmacol. 115:124 (1991) and Neurotoxicology 14:35 (1992)). LDH was measured by the method of Vassault, Lactate dehydrogenase. […] Briefly, the cells were washed with HBSS, loaded with 20 μM EthD-1 for 30 min,. rinsed and viewed through fluorescence optics. The number of dead cells labeled with EthD-1 were counted in 4-6 randomly selected fields, the numbers averaged to give an estimate of cell death and the experiment was repeated 3 times.

[1] = Paraquat-induced lung injury, BALF analysis; assay type: in vivo, Mice; settings: 2.5 mg/ml nebulized 30 minutes twice daily for 2 days; paraquat 45 mg/kg ip; 48 hours
Procedure: Mice were treated with either paraquat (PQ, 45 mg/kg, ip) or saline (10 ml/kg, ip) and exposed to MnTBAP (2.5 mg/ml, nebulized into a 2 L chamber at 2 L/min for 30 minutes twice daily for 2 days) or room air. Mice were killed 48 hours after start of treatment and lung injury was assessed by analysis of bronchoalveolar lavage fluid (BALF). BALF damage markers used were lactate dehydrogenase (LDH, as units/L), proteins concentration (as mg/dl), and percent of polymorphonuclear leukocytes (PMN).

[2] = tested on: calf pulmonary artery endothelial cell cultures (CPA-47); assay: Xanthine oxidase/xanthine-induced injury, LDH release; assay type: cell-based; settings: 50 μM, 1 hour pre-incubation; XO plus 200 μM xanthine, 24 hours
Procedure: In a second study, calf pulmonary artery endothelial cell cultures (CPA-47 (Tissue and Cell 10:535 (1978)) were grown to confluence in Ham's F-12K medium with 10% fetal bovine serum at pH 7.4 and 37° C. Cells were then trypsinized and seeded at equal densities in 24 well plates and grown to 90% confluence. Cells were washed and pre-incubated for 1 hour with 50 μM of MnTBAO in minimum essential medium (MEM) or MEM only. Various amounts of xanthine oxidase (XO) plus 200 μM xanthine (X) were added and allowed to incubate for 24 hours. Cell injury was quantitated by measuring the release of cellular lactate dehydrogenase (LDH) into the medium.

[3] = tested on: Rat pulmonary epithelial cell cultures (L2); assay: Paraquat-induced injury of L2 cells, LDH release; assay type: cell-based; settings: 100 μM; Paraquat 2.5 mM, 48 hours
J774 macrophages = assay: Mitochondrial respiration (MTT) in J774 macrophages; assay type: cell-based
Procedure: Cell culture: J774 macrophages were cultured in DMEM medium, supplemented with L-glutamine (3.5 mmol/L) and 10% fetal calf serum. Cells were cultured in 96-well plates (200 μl medium/well) until confluence. To induce the inducible isoform of nitric oxide synthase (iNOS), fresh culture medium containing E. coli LPS (011:B4, 10 μg/ml) alone or in combination with murine γ-interferon (γ-IFN, 10 U/ml) was added in the presence or absence of the NOS inhibitor, the SOD mimetic of the combination of the two compounds for 24 h. Moreover, cells were exposed to the NO donor compounds S-nitroso-N-acetyl-DL-penicillamine (SNAP) (3 mM) and diethylamine:NO NONOate (DNO) (3 mM) for 24 h or to authentic peroxynitrite (1 mM) for 1 h). Nitride/nitrate concentration in the medium and mitochondrial respiration were then measured as described below.
Measurement of mitochondrial respiration: Cell respiration was assessed by the mitochondrial-dependent reduction of 3-(4,5-dimethylthiazol-2-yl)-2,5-diphenyltetrazolium bromide (MTT) to formazan. Cells in 96-well plates were incubated at 37° C. with MTT (0.2 mg/ml) for 1 hour. Culture medium was removed by aspiration and the cells were solubilized in DMSO (100 μl). The extent of reduction of MTT to formazan within cells was quantitated by the measurement of OD550. All measurements were corrected for the interference of MnTBAP at this wavelength.

rat cortical cells = assay: Neurotoxicity (LDH release) in cortical cell culture; assay type: cell-based
Procedure: Tissue culture: Mixed neuronal and glial cultures were prepared from embryonic day-18 rat cerebral cortices (Sprague-Dawley, Zivic Miller). Briefly, the cerebral cortices were dissected and enzymatically dissociated by incubation in Ca^++-, Mg^++-free Hank's balanced salt solution (HBSS) supplemented with 10 mM HEPES and 0.25% trypsin for 20 min. at 37° C. The tissue was rinsed and dispersed into single cell suspension by gentle passage through a fire polished Pasteur pipette. The cell suspension was centrifuged and resuspended in Minimum Essential Media (MEM), containing Earle's salts supplemented with 3 g/L glucose, 5% horse serum and 5% fetal bovine serum (growth media). The cells were plated in poly-D-lysine-coated multi-well plates: 12-well plates for aconitase measurement, and 24 well plates for toxicity experiments. Cells were maintained at 37° C. in a humidified incubator with 5% CO2/95% air in growth media. Media was not replaced so as to reduce glial overgrowth and neuronal loss. Mature cells (14-17 days in vitro) were used for all experiments.
Cell treatment: The growth media was replaced with MEM supplemented with 25 mM glucose (MEM-g). For both neurotoxicity studies and aconitase measurement, cells were incubated in the designated treatment for the indicated length of time at 37° C. Unless otherwise specified, antagonists or SOD-mimetics were added 15 min. prior to agonists. For measurement of neurotoxicity, cells were incubated with treatments for 18 hr at 37° C. in MEM-g. To access the ability of antagonists to inhibit acute NMDA toxicity or rescue cells from an ongoing NMDA insult, an alternate paradigm of NMDA treatment was used in addition to the one describe above. In this paradigm, growth media was replaced with HBSS^+ (Ca^++-, Mg^++-free Hank's Balanced Salt Solution supplemented with 2 mM CaCl2, 1 mM NaHCO3, 10 mM HEPES and 5 μM glycine), cells were treated with vehicle or 100 μM NMDA for 15 min. after which HBSS^+ was replaced with MEM-g and cells were returned to the incubator for 18 additional hrs. Antagonsists or SOD-mimetics were added to the cells 15 min. before NMDA exposure or 15, 30 or 60 min. following final media replacement. For determination of Ca^++-dependence, cells were incubated in HBSS^+ with no added Ca^++. When kainate (KA) was used as an agonist, 100 μM D-APV was routinely included to block secondary NMDA receptor activation. Catalase (100 U/ml) was always included when xanthine plus xanthine oxidase (X+XO) was used as a treatment to rule out the contribution of hydrogen peroxide.
Neurotoxicity studies: Neurotoxicity was determined by the measurement of LDH released in the supernatant media as previously described (Patel et al, Toxicol. Appl. Pharmacol. 115:124 (1991) and Neurotoxicology 14:35 (1992)). LDH was measured by the method of Vassault, Lactate dehydrogenase. In: Methods of Enzymatic Analysis, Bergmeyer HU (ed), Verlag Chemie, Weinheim, pp. 118-126 (1983). Additionally, cell death was confirmed with ethidium-1 homodimer (EthD-1). Briefly, the cells were washed with HBSS, loaded with 20 μM EthD-1 for 30 min,. rinsed and viewed through fluorescence optics. The number of dead cells labeled with EthD-1 were counted in 4-6 randomly selected fields, the numbers averaged to give an estimate of cell death and the experiment was repeated 3 times.

For “Mn(III) tetrakis (4-benzoic acid)porphyrin [MnTBAP]”, the “neuroprotective effects against PQ^++, NMDA and KA toxicities” value (Cortical cells) was “markedly increased neuroprotective effects in comparison to ZnTBAP”, the “protection against paraquat-induced lung injury” value [1] was “partial protection” and the “XO/X-induced LDH release” value [2] was “decrease in XO/X-induced LDH release”. The “paraquat-induced LDH release” value [3] was “decrease paraquat-induced LDH release”, the “suppression of mitochondrial respiration by peroxynitrite” value (J774 macrophages; 1 mM peroxynitrite, 1 h) was “partially and dose dependently prevented” and the “immunostimulation-induced suppression of mitochondrial respiration” value (J774 macrophages; LPS-treated and LPS and IFN-treated cells, 24 h) was “dose-dependent, partial restoration”. The “suppression of mitochondrial respiration by NO donors SNAP and DNO” value (J774 macrophages; SNAP, DNO 3 mM, 24 h) was “partially and dose dependently prevented”, the “PQ^++-, NMDA- and KA-mediated cell death (LDH release)” value (rat cortical cells; 200 μM MnTBAP, 18 hr) was “markedly inhibited” and the “shift of concentration-response curve for NMDA (LDH)” value (rat cortical cells; 200 μM MnTBAP, 18 hr) was “complete protection at low concentrations of NMDA”. The “reduction of LDH release” value (rat cortical cells; 200 μM added 30 min. after 15 min. 100 μM NMDA) was 30%, the “reduction of LDH release” value (rat cortical cells; 200 μM added 60 min. after 15 min. 100 μM NMDA) was 25% and the “reduction of LDH release / protective effect” value (rat cortical cells; added 15 min. after 15 min. 100 μM NMDA, 200 μM MnTBAP, 10 μM MK801) was 38%. For the same substance, the “reduction of LDH release” value (rat cortical cells; condition "pre": 15 min. prior to and during 15 min. 100 μM NMDA, measured 18 hr. later) was 25% and the “reduction of LDH release” value (rat cortical cells; condition "pre+post", 100 μM NMDA 15 min.) was 51%.
